As a reminder, the inhibition is the share of the control response that was lost under treatment.

The source of these data is ChEMBL document CHEMBL3603819, “Targeting zoonotic viruses: Structure-based inhibition of the 3C-like protease from bat coronavirus HKU4--The likely reservoir host to the human coronavirus that causes Middle East Respiratory Syndrome (MERS)” (Bioorg Med Chem, 2015).

The subject of this test is Tylonycteris bat coronavirus HKU4. The note with it: at 100 µM.
`Cc1nc2ccccc2n1CC(=O)N(c1ccc(N)cc1)C(C(=O)NC(C)(C)C)c1ccsc1` (stereo not given) displayed an inhibition of 14%.

`CC(C)(C)NC(=O)C(c1ccsc1)N(C(=O)c1ccc(C(F)(F)F)nc1)C1CC1` (stereo not given) returned an inhibition of 12%.

The compound `CC(C)c1ccc(N(C(=O)c2cccc3c2CCCC3)C(C(=O)NC(C)(C)C)c2ccsc2)cc1` (stereo not given) had an inhibition of 20%.

As to `CC(C)C(=O)Nc1ccc(N(C(=O)Cn2cnc3ccccc32)C(C(=O)NC(C)(C)C)c2ccsc2)cc1` (stereo not given), the inhibition was 56%.

In turn, `CC(C)(C)NC(=O)C(c1cncnc1)N(C(=O)c1cnco1)c1ccc(C(C)(C)C)cc1` (stereo not given) had an inhibition of 58%.

The compound `CC(C)(C)NC(=O)C(c1ccsc1)N(C(=O)Cc1cccnc1)c1ccc(OCF)cc1` (stereo not given) returned an inhibition of 29%.

In the case of `CC(C)c1ccc(N(C(=O)c2cccc3c2CCCC3)C(C(=O)NC(C)(C)C)c2cccnc2)cc1` (stereo not given), the inhibition stood at 25%.

In turn, `O=C(NCc1ccccc1)C(c1cccc(F)c1)N(C(=O)Cn1nnc2ccccc21)C12CC3CC(CC(C3)C1)C2` (stereo not given) yielded an inhibition of 16%.

Regarding `CC(C)(C)NC(=O)C(c1cccnc1)N(C(=O)c1ccco1)C12CC3CC(CC(C3)C1)C2` (stereo not given), the inhibition turned out to be 18%.

The compound `COc1ccccc1C(=O)N(c1ccc(C(C)(C)C)cc1)C(C(=O)NC(C)(C)C)c1cccnc1` (stereo not given) showed an inhibition of 17%.

Turning to `CC(C)(C)NC(=O)C(c1ccsc1)N(C(=O)Cn1nnc2ccccc21)c1ccc(NC(=O)C(C)(C)C)cc1` (stereo not given), the inhibition was found to be 18%.

As for `CCC(C)Oc1ccc(N(C(=O)c2ccco2)C(C(=O)NC(C)(C)C)c2cccnc2)cc1` (stereo not given), the inhibition amounted to 20%.

`CC(C)(C)NC(=O)C(c1cccnc1)N(C(=O)Cc1c[nH]c2ccccc12)c1ccc(OCF)cc1` (stereo not given) returned an inhibition of 52%.

Compound `CC(C)(C)NC(=O)C(c1cccnc1)N(C(=O)Cc1cccc2ccccc12)c1ccc(C(C)(C)C)cc1` (stereo not given) showed an inhibition of 26%.

As to `CC(C)(C)NC(=O)C(c1cccnc1)N(C(=O)c1cccnc1)c1ccc(C(C)(C)C)cc1` (stereo not given), the inhibition turned out to be 13%.

For `Cc1ccc(C(=O)N(c2ccc(C(C)(C)C)cc2)C(C(=O)NC(C)(C)C)c2cccnc2)o1` (stereo not given), the inhibition was 26%.

For the compound `CC(C)COC(=O)Nc1ccc(N(C(=O)Cn2nnc3ccccc32)C(C(=O)NC(C)(C)C)c2ccsc2)cc1` (stereo not given), the inhibition is 19%.

`CC(C)(C)c1ccc(N(Cc2cccnc2)C(=O)c2c[nH]cn2)cc1` returned an inhibition of 28%.

For the compound `CC(C)(C)NC(=O)C(c1ccsc1)N(C(=O)c1ccco1)c1ccc(OC(F)F)cc1` (stereo not given), the inhibition was determined as 13%.

In turn, `CC(C)(C)NC(=O)C(c1cccnc1)N(C(=O)c1cccc2c1CCCC2)c1ccc(OCF)cc1` (stereo not given) came in with an inhibition of 21%.

In the case of `CC(C)c1ccc(N(C(=O)Cc2cccc3ccccc23)C(C(=O)NC(C)(C)C)c2ccsc2)cc1` (stereo not given), the inhibition is 13%.

For the compound `CC(C)(C)NC(=O)C(c1cccnc1)N(C(=O)c1ccco1)c1ccc(-c2ccc(F)c(F)c2)cc1` (stereo not given), the inhibition was found to be 12%.

`CC(C)(C)NC(=O)C(c1cccnc1)N(C(=O)c1n[nH]c2ccccc12)C1CC1` (stereo not given): the inhibition was found to be 21%.

For `CC(C)(C)NC(=O)C(c1cccnc1)N(C(=O)c1ccco1)c1ccc(NS(C)(=O)=O)cc1` (stereo not given), the inhibition was 12%.

`CC(C)(C)NC(=O)C(c1cccc(F)c1)N(C(=O)Cn1nnc2ccccc21)C1CC2CCC1C2` (stereo not given) had an inhibition of 15%.

Turning to `CCC(C)c1ccc(N(C(=O)c2ccco2)[C@@H](C(=O)NC(C)(C)C)c2cccnc2)cc1` (stereo not given in full), the inhibition was 20%.

`CC(C)(C)NC(=O)C(c1cccnc1)N(C(=O)c1ccc(C#N)cc1)c1ccc(C(C)(C)C)cc1` (stereo not given) had an inhibition of 11%.

For the compound `CC(C)(C)NC(=O)C(c1cccnc1)N(C(=O)c1ccco1)c1ccc(-c2ccc(C#N)cc2)cc1` (stereo not given), the inhibition is 14%.

Compound `CC(C)(C)NC(=O)C(c1cccnc1)N(C(=O)Cc1cccnc1)C1CC1` (stereo not given) yielded an inhibition of 48%.

Compound `CNc1ccc(N(Cc2ccsc2)C(=O)Cn2nnc3ccccc32)cc1` registered an inhibition of 91%.

For the compound `CC(C)(C)NC(=O)C(c1ccsc1)N(C(=O)c1n[nH]c2ccccc12)C1CC1` (stereo not given), the inhibition came out at 21%.

Compound `COCCC(=O)Nc1ccc(N(Cc2ccsc2)C(=O)Cn2nnc3ccccc32)cc1` had an inhibition of 94%.

In turn, `CC(C)(C)NC(=O)C(c1ccsc1)N(C(=O)c1n[nH]c2ccccc12)c1ccc(F)cc1` (stereo not given) displayed an inhibition of 11%.

As for `CC(C)(C)NC(=O)C(c1ccsc1)N(C(=O)Cc1cccc2ccccc12)c1ccc(C(C)(C)C)cc1` (stereo not given), the inhibition amounted to 15%.

With `CC(C)(C)NC(=O)C(c1ccsc1)N(C(=O)c1n[nH]c2ccccc12)c1ccc(C(C)(C)C)cc1` (stereo not given), the inhibition was 16%.

Regarding `CC(C)(C)NC(=O)C(c1ccsc1)N(C(=O)c1ccc(C#N)cc1)c1ccc(OCF)cc1` (stereo not given), the inhibition amounted to 16%.

Turning to `O=C(Cn1nnc2ccccc21)N(Cc1ccsc1)c1ccc(NCc2ccccc2)cc1`, the inhibition is 64%.

For `O=C(Cn1nnc2ccccc21)N(Cc1ccsc1)c1ccc(-c2ccccc2)cc1`, the inhibition was 21%.

The compound `O=C(Nc1ccc(N(Cc2ccsc2)C(=O)Cn2nnc3ccccc32)cc1)C1CCCCC1` had an inhibition of 88%.

Compound `CC(C)(C)NC(=O)C(c1cccnc1)N(C(=O)c1ccc(C(F)(F)F)cn1)C1CC1` (stereo not given) had an inhibition of 42%.

The compound `CC(C)(C)NC(=O)C(c1cccnc1)N(C(=O)c1ncco1)c1ccc(C(C)(C)C)cc1` (stereo not given) returned an inhibition of 30%.

The compound `CC(C)c1ccc(N(C(=O)c2ccc(C(F)(F)F)nc2)C(C(=O)NC(C)(C)C)c2ccsc2)cc1` (stereo not given) registered an inhibition of 15%.

`CC(C)(C)NC(=O)C(c1ccsc1)N(C(=O)Cn1nnc2ccccc21)c1ccc(N)cc1` (stereo not given) yielded an inhibition of 64%.

Regarding `CC(C)(C)NC(=O)C(c1ccsc1)N(C(=O)Cn1nnc2ccccc21)c1ccc(NC(=O)C2CCC2)cc1` (stereo not given), the inhibition was determined as 20%.

Turning to `CC(C)(C)NC(=O)C(c1cccnc1)N(C(=O)c1ccco1)c1ccc(-c2cccc(F)c2F)cc1` (stereo not given), the inhibition was found to be 18%.

In the case of `CC(C)C(=O)Nc1ccc(N(Cc2ccsc2)C(=O)Cn2ccnn2)cc1`, the inhibition amounted to 63%.

The compound `Cc1nc2ccccc2n1CC(=O)N(c1ccc(C(C)(C)C)cc1)C(C(=O)NC(C)(C)C)c1ccsc1` (stereo not given) came in with an inhibition of 19%.

`CC(C)(C)NC(=O)C(c1cncnc1)N(C(=O)c1ccco1)c1ccc(C(C)(C)C)cc1` (stereo not given) gave an inhibition of 16%.

The compound `CC(C)(C)NC(=O)C(c1ccsc1)N(C(=O)Cn1cnc2ccccc21)c1ccc(C(C)(C)C)cc1` (stereo not given) returned an inhibition of 15%.

`CC(C)(C)NC(=O)C(c1cn[nH]c1)N(C(=O)c1ccco1)c1ccc(C(C)(C)C)cc1` (stereo not given) came in with an inhibition of 12%.

On to `CC(C)(C)NC(=O)C(c1cccnc1)N(C(=O)c1ccco1)c1ccc(C(C)(C)C)cc1` (stereo not given), for which the inhibition was determined as 11%.

In the case of `CC(C)(C)NC(=O)C(c1cccnc1)N(C(=O)c1cnco1)c1ccc(C(C)(C)C)cc1` (stereo not given), the inhibition was 96%.

As for `CC(C)(C)NC(=O)C(c1cccnc1)N(C(=O)c1ccc(F)cc1)c1ccc(C(C)(C)C)cc1` (stereo not given), the inhibition turned out to be 21%.

`CC(C)(C)NC(=O)C(c1ccsc1)N(C(=O)Cn1cnc2ccccc21)c1ccc(N)cc1` (stereo not given) had an inhibition of 18%.

As to `CC(C)(C)NC(=O)C(c1cccnc1)N(C(=O)Cc1cccnc1)c1ccc(OCF)cc1` (stereo not given), the inhibition stood at 18%.

The compound `COc1ccc(N(C(=O)c2ccco2)C(C(=O)NC(C)(C)C)c2cccnc2)cc1` (stereo not given) showed an inhibition of 10%.

`CC(C)(C)NC(=O)C(c1cccnc1)N(C(=O)c1cc[nH]n1)c1ccc(C(C)(C)C)cc1` (stereo in doubt; 53B) registered an inhibition of 28%.

On to `CC(C)(C)NC(=O)C(c1ccsc1)N(C(=O)Cn1nnc2ccccc21)c1ccc(NC(=O)C2CCCCC2)cc1` (stereo not given), for which the inhibition came out at 21%.

In turn, `CC(C)Oc1ccc(N(C(=O)c2ccco2)C(C(=O)NC(C)(C)C)c2cccnc2)cc1` (stereo not given) gave an inhibition of 13%.

With `CC(C)(C)NC(=O)C(c1cccnc1)N(C(=O)c1ccc(C#N)cc1)c1ccc(OCF)cc1` (stereo not given), the inhibition is 15%.

`CC(C)(C)NC(=O)C(c1cccnc1)N(C(=O)Cc1cccc2ccccc12)c1ccc(F)cc1` (stereo not given) gave an inhibition of 22%.

`O=C(Nc1ccc(N(Cc2ccsc2)C(=O)Cn2nnc3ccccc32)cc1)c1ccccc1`: the inhibition was found to be 90%.

Take `CC(C)(C)NC(=O)C(c1ccc(C(C)(C)C)cc1)N(C(=O)c1ccco1)c1ccc(C(C)(C)C)cc1` (stereo not given): the inhibition is 26%.

For `COc1ccc(C(=O)N(c2ccc(C(C)(C)C)cc2)C(C(=O)NC(C)(C)C)c2cccnc2)cc1` (stereo not given), the inhibition was determined as 16%.

`O=C(Cn1nnc2ccccc21)N(Cc1ccsc1)c1ccc(-c2cccnc2)cc1` registered an inhibition of 90%.

With `CC(C)(C)NC(=O)C(c1cncnc1)N(C(=O)c1c[nH]cn1)c1ccc(C(C)(C)C)cc1` (stereo not given), the inhibition came out at 84%.

Take `COc1cccc(Oc2ccc(N(C(=O)c3ccco3)C(C(=O)NC(C)(C)C)c3cccnc3)cc2)c1` (stereo not given): the inhibition came to 18%.

Regarding `CC(C)(C)NC(=O)C(c1ccsc1)N(C(=O)Cc1cccnc1)c1ccc(F)cc1` (stereo not given), the inhibition was found to be 24%.

The compound `CC(C)COC(=O)Nc1ccc(N(Cc2ccsc2)C(=O)Cn2nnc3ccccc32)cc1` returned an inhibition of 75%.

Compound `CC(C)(C)NC(=O)C(c1cccnc1)N(C(=O)c1ccc(C(F)(F)F)o1)c1ccc(C(C)(C)C)cc1` (stereo not given) came in with an inhibition of 16%.

The compound `CC(C)(C)NC(=O)C(c1ccsc1)N(C(=O)c1ccc(C#N)cc1)c1ccc(F)cc1` (stereo not given) displayed an inhibition of 13%.

Compound `CC(C)(C)NC(=O)C(c1ccsc1)N(C(=O)c1ccc(C#N)cc1)C1CC1` (stereo not given) showed an inhibition of 20%.

`CC(C)c1ccc(N(C(=O)Cc2cccnc2)C(C(=O)NC(C)(C)C)c2ccsc2)cc1` (stereo not given): the inhibition amounted to 24%.

`CC(C)(C)NC(=O)C(c1c[nH]nn1)N(C(=O)c1ccco1)c1ccc(C(C)(C)C)cc1` (stereo not given): the inhibition came to 16%.

As to `CC(C)(C)NC(=O)C(c1ccsc1)N(C(=O)c1cccc2c1CCCC2)c1ccc(F)cc1` (stereo not given), the inhibition amounted to 17%.

In turn, `CC(C)(C)NC(=O)C(c1cccnc1)N(C(=O)Cc1cccc2ccccc12)c1ccc(OCF)cc1` (stereo not given) yielded an inhibition of 21%.

Regarding `COCC(=O)Nc1ccc(N(Cc2ccsc2)C(=O)Cn2nnc3ccccc32)cc1`, the inhibition was 91%.

The compound `CC(C)(C)NC(=O)C(c1cccnc1)N(C(=O)c1ncccn1)c1ccc(C(C)(C)C)cc1` (stereo not given) yielded an inhibition of 13%.

In the case of `CC(C)(C)NC(=O)C(c1cccnc1)N(C(=O)c1c[nH]c2ccccc12)C1CC1` (stereo not given), the inhibition was 49%.

`CC(C)(C)NC(=O)C(c1cccnc1)N(C(=O)c1ccsc1)c1ccc(C(C)(C)C)cc1` (stereo not given) registered an inhibition of 16%.
